# Test results published in US12486251B2 (PHARMABLOCK SCIENCES (NANJING) , INC., priority 2020, dated 2025).
# Target: CBP recombinant proteins (Homo sapiens (Human), UniProt Q92793)
# Experiment: Competitive HTRF assay for affinity to CBP recombinant protein
# Assay type: binding
# Conditions: His-tagged CBP 5 nM, biotin-labeled ligand 50 nM, 1% DMSO
# Experimental: The affinity of the compounds synthesized in the present patert to the CBP recombinant proteins was determined by competitive HTRF method. His-tagged cyclic adenosine monophosphate response element binding protein (CREB-binding protein, CBP) was expressed in Escherichia coli system and further purified. CBP biotinylated ligands were all self-made. The BL21 star (DE3) competert cells transfected with His-tagged CBP protein genes at N-terminal were cultured at 37° C. for 16 h until the OD value was between 0.6 and 0.8, induced by 0.5 mM of IPTG and cultured overnight. The supernatant of cell lysate was purified by a Ni-ion affinity column and a Superdex75 molecular sieve column sequentially. The purity of resulting CBP proteins was 95%. The fluorescent donor reagent MAb Anti 6HIS—Eu cryptate Gold (Cisbio #61HI2KLA), the receptor reagent Streptavidin-XL665 (#610SAXLA) and the detection buffer (#62SDBRDD) required for HTRF were obtained from CISBIO BIOASSAYS (Codolet, France). Tris(2-carboxyethyl)phosphine hydrochloride (TCEP), sodium chloride, adenosine triphosphate (ATP), Tween-20, dimethylsulfoxide (DMSO), bovine serum albumin (BSA) and HEPES buffer were obtained from SIGMA at the highest level commercially available.
# The general procedure of the competitive HTRF assay for the affinity to CBP recombinant proteins is as follows: 0.05% Tween-20 and 1 mM of TCEP were added immediately before the assay, and the assay was performed in a buffer consisting of 0.1 mg/ml BSA, 50 mM of HEPES and 5 mM of NaCl of pH 7.5. 2.5 μL of compound solution in a determination buffer with 4% DMSO and 5 μL of CBP solution in a determination buffer were added to a white low-volume 384-well microtiter plate, incubated at room temperature for 20 min, and then incubated at room temperature for 40 min by adding 2.5 μL of biotin-labeled ligand solution to the determination buffer. The final concentrations of CBP, biotin-labeled ligand and DMSO were 5 nM, 50 nM and 1%, respectively. Then, 5 μL of MAb Anti 6HIS—Eu cryptate Gold and […] of Streptavidin-XL665 in detection buffers from the manufacturer were added to the mixture, and the mixture was incubated for another 60 min. The final concentration of Streptavidin-XL665 was 12.5 nM, and MAb Anti 6HIS—Eu cryptate Gold was diluted according to the final concentration provided by the supplier. The multimode reader Spark from TECAN (Mannedorf, Switzerland) was used to read the plate to detect the homogeneous time-resolved fluorescence intensity of two groups, in which the excitation wavelength was 320 nm and the emission wavelengths were 665 nm and 620 nm. The IC50 value of the inhibitor was obtained by fitting fluorescence intensity ratios at 665 nm/620 nm with respect to the inhibitor concentration in an S-shaped dose-response curve by using Prism 7 (La Jolla, 15 CA).
# Sequence of CBP recombinant proteins (Q92793 whole entry): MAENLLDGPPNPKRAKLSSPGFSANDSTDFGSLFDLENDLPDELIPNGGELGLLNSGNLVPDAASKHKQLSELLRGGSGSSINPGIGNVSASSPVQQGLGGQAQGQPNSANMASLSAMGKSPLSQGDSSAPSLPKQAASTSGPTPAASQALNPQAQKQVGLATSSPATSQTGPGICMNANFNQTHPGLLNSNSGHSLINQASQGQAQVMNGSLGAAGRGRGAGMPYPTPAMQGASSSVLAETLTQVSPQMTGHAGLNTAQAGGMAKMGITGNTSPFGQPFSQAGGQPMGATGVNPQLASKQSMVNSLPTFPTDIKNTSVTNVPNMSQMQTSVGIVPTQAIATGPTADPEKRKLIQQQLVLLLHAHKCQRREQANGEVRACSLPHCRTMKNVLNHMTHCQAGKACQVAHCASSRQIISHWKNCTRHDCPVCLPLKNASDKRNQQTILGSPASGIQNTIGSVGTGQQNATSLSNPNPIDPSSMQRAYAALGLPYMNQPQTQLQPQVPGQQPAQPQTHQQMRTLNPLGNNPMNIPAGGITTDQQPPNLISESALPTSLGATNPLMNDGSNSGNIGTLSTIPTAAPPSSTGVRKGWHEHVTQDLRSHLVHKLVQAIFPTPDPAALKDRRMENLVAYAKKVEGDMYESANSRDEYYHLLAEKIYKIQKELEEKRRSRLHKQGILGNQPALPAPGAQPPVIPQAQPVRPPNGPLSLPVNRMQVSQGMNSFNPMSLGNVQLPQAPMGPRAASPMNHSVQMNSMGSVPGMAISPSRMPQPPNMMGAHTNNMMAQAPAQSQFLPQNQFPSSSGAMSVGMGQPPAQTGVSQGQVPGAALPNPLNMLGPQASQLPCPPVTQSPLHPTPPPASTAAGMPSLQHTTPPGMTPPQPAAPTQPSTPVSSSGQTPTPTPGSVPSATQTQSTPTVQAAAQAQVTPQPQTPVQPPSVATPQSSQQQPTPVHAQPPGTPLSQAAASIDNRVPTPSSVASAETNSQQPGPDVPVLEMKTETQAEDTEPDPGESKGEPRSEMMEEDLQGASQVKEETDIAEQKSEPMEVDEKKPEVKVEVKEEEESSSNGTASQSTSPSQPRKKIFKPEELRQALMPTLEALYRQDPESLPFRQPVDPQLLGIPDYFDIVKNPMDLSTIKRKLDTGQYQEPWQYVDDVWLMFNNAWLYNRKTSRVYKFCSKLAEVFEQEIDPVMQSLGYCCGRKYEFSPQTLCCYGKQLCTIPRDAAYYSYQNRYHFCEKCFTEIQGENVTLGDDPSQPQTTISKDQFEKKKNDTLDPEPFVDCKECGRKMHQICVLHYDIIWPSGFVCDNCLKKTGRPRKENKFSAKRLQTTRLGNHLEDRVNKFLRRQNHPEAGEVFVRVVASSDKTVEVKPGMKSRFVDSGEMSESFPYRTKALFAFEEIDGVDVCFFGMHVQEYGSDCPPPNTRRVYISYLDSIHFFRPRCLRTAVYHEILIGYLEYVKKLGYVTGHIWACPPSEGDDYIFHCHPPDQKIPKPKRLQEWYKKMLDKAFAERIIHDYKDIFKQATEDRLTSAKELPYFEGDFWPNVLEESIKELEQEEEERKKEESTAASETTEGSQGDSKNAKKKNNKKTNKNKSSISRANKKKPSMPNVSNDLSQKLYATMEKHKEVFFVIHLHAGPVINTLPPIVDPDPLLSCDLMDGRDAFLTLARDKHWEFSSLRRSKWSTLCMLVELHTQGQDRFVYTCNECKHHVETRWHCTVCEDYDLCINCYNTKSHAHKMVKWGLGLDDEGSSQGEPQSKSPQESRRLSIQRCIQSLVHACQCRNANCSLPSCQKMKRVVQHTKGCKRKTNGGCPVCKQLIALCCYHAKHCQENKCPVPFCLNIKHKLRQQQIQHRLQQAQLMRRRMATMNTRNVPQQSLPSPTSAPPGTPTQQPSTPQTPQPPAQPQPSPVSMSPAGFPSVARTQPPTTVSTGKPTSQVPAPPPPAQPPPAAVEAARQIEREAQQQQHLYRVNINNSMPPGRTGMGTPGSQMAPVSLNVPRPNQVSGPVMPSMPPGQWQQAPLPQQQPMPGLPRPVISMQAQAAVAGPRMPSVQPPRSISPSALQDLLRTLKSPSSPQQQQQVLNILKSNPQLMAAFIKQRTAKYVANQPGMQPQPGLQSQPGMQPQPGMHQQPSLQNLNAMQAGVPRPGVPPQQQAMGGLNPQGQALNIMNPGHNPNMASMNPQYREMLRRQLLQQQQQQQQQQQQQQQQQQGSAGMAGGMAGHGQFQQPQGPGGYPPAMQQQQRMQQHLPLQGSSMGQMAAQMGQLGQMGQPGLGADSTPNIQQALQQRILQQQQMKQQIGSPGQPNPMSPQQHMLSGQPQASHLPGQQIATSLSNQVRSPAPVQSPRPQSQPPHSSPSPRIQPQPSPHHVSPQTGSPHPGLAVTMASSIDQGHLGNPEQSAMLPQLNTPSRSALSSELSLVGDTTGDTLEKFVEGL
row,Structure (SMILES),IC50 [nM]
1,"CNC(=O)c1cc2cc(C3CCCO3)ccc2c(N2CCCc3cc(-c4cnn(C)c4)c(C(F)F)cc32)n1 (stereo not shown) [Example 29, 1-[7-difluoromethyl-6-(1-methyl-1H-pyrazol-4-yl)-3,4-dihydro-2H-quinolin-1-yl]-6-(tetrahydrofuran-2-yl)-isoquinoline-3-carboxylic acid methylamide]",16
2,"CNC(=O)c1cc2ccccc2c(N2CCCc3cc(C4=CCOCC4)c(C(F)F)cc32)n1 [Example 31, 1-[7-difluoro-methyl-6-(3,6-dihydro-2H-pyran-4-yl)-3,4-dihydro-2H-quino-lin-1-yl]-iso-quinoline-3-carboxylic acid methylamide]",49
3,"CNC(=O)c1cc2ccccc2c(N2CCCc3cc(-c4cnn(C5CC5)c4)c(C(F)F)cc32)n1 [Example 33, 1-[6-(1-cyclo-propyl-1H-pyrazol-4-yl)-7-difluoromethyl-3,4-dihydro-2H-quino-lin-1-yl]-iso-quinoline-3-carboxylic acid methylamide]",44
4,"CNC(=O)c1cc2cccnc2c(N2CCCc3cc(-c4ccnnc4)c(C(F)F)cc32)n1 [Example 39, 8-(7-difluoro-methyl-6-pyrida-zine-4-yl-3,4-dihydro-2H-quinolin-1-yl)-[1,7] naphthyridine-6-carboxylic acid methylamide]",13
5,"CNC(=O)c1cc2ccccc2c(N2CCC(O)c3cc(-c4cnn(C)c4)ccc32)n1 (stereo not shown) [Example 41, 1-[4-hydroxy-6-(1-methyl-1H-pyrazol-4-yl)-3,4-dihydro-2H-quinolin-1-yl]isoquinoline-3-carboxylic acid methylamide]",57
6,CNC(=O)c1cc2ccccc2c(N2CCCc3cc(C4=CCNCC4)c(C(F)F)cc32)n1 [Example 42],50
7,"CNC(=O)c1cc2cccnc2c(N2CCCc3cc(C4=CCN(C(C)=O)CC4)c(C(F)F)cc32)n1 [Example 43, 8-[6-(1-acetyl-1,2,3,6-tetrahydropyridin-4-yl)-7-difluoromethyl-3,4-dihydro-2H-quinolin-1-yl]-[1,7]naphthyridine-6-carboxylic acid methylamide]",6.7
8,"CNC(=O)c1cc2cccnc2c(N2CCCc3cc(C4=CCN(C)CC4)c(C(F)F)cc32)n1 [Example 44, 8-[7-difluoromethyl-6-(1-methyl-1,2,3,6-tetrahydropyridin-4-yl)-3,4-dihydro-2H-quinolin-1-yl]-[1,7]naphthyridine-6-carboxylic acid methylamide]",64
9,"CNC(=O)c1cc2cccnc2c(N2CCCc3cc(C4=CCN(S(C)(=O)=O)CC4)c(C(F)F)cc32)n1 [Example 45, 8-[7-difluoromethyl-6-(1-methanesulfonyl-1,2,3,6-tetrahydropyridin-4-yl)-3,4-dihydro-2H-quinolin-1-yl]-[1,7]naphthyridine-6-carboxylic acid methylamide]",8.5
10,"CNC(=O)c1cc2ncccc2c(N2CCCc3cc(C4CCN(C(C)=O)CC4)c(C(F)F)cc32)n1 [Example 47, 5-[6-(1-acetylpiperidin-4-yl)-7-difluoro-methyl-3,4-dihydro-2H-quinolin-1-yl]-[1,6] naphthyridine-7-carboxylic acid methylamide]",31
11,"CNC(=O)c1cc2cnccc2c(N2CCCc3cc(C4CCN(C(C)=O)CC4)c(C(F)F)cc32)n1 [Example 48, 1-[6-(1-acetylpiperidin-4-yl)-7-difluoro-methyl-3,4-dihydro-2H-quinolin-1-yl]-[2,6] naphthyridine-3-carboxylic acid methylamide]",13
12,"CNC(=O)c1cc2ccncc2c(N2CCCc3cc(C4CCN(C(C)=O)CC4)c(C(F)F)cc32)n1 [Example 49, 1-[6-(1-acetylpiperidin-4-yl)-7-difluoro-methyl-3,4-dihydro-2H-quinolin-1-yl]-[2,7] naphthyridine-3-carboxylic acid methylamide]",12
13,"CNC(=O)c1cc2cc(Cl)cnc2c(N2CCCc3cc(C4CCN(C(C)=O)CC4)c(C(F)F)cc32)n1 [Example 50, 8-[6-(1-acetylpiperidin-4-yl)-7-difluoro-methyl-3,4-dihydro-2H-quinolin-1-yl]-3-chloro-[1,7] naphthyridine-6-carboxylic acid methylamide]",54

# Next, values leading:
row,IC50 [nM],Structure (SMILES)
1,11,"CNC(=O)c1cc2cc(N3CCCS3(=O)=O)ccc2c(N2CCCc3cc(-c4cnn(C)c4)c(C(F)F)cc32)n1 [Example 26, 1-(7-(difluoromethyl)-6-(1-methyl-1H-pyrazol-4-yl)-3,4-dihydroquinolin-1(2H)-yl)-6-(1,1-dioxyisothiazolidin-2-yl)-N-methyliso-quinoline-3-carboxamide]"
2,3.3,"CNC(=O)c1cc2cc(N3CCN(C)CC3=O)ccc2c(N2CCCc3cc(-c4cnn(C)c4)c(C(F)F)cc32)n1 [Example 27, 1-[7-difluoromethyl-6-(1-methyl-1H-pyrazol-4-yl)-3,4-dihydro-2H-quinolin-1-yl]-6-(4-methyl-2-oxo-piperazin-1-yl)-isoquinoline-3-carboxylic acid methylamide]"
3,5.3,"CNC(=O)c1cc2cc(N3CCOCC3=O)ccc2c(N2CCCc3cc(-c4cnn(C)c4)c(C(F)F)cc32)n1 [Example 28, 1-[7-difluoromethyl-6-(1-methyl-1H-pyrazol-4-yl)-3,4-dihydro-2H-quinolin-1-yl]-6-(3-oxo-morpholin-4-yl)-isoquinoline-3-carboxylic acid methylamide]"
4,22,"CNC(=O)c1cc2ccccc2c(N2CCCc3cc(-c4cncnc4)c(C(F)F)cc32)n1 [Example 30, 1-(7-difluoromethyl-6-pyrimidine-5-yl-3,4-dihydro-2H-quinolin-1-yl)-isoquinoline-3-carboxylic acid methylamide]"
5,36,"CCn1cc(-c2cc3c(cc2C(F)F)N(c2nc(C(=O)NC)cc4ccccc24)CCC3)cn1 [Example 32, 1-[7-difluoro-methyl-6-(1-ethyl-1H-pyrazol-4-yl)-3,4-dihydro-2H-quinolin-1-yl]-isoquino-line-3-carboxylic acid methylamide]"
6,32,"CNC(=O)c1cc2ccccc2c(N2CCCc3cc(-c4ccn(C)n4)c(C(F)F)cc32)n1 [Example 34, 1-[7-difluoro-methyl-6-(1-methyl-1H-pyrazol-3-yl)-3,4-dihydro-2H-quinolin-1-yl]-isoquinoline-3-carboxylic acid methylamide]"
7,16,CNC(=O)c1cc2ccccc2c(N2CCCc3cc(-c4cnn(CCO)c4)c(C(F)F)cc32)n1 [Example 35]
8,16,"CNC(=O)c1cc2cccnc2c(N2CCCc3cc(-c4cncnc4)c(C(F)F)cc32)n1 [Example 37, 8-(7-difluoro-methyl-6-pyrimidine-5-yl-3,4-dihydro-2H-quinolin-1-yl)-[1,7] naphthyridine-6-carboxylic acid methylamide]"
9,14,"CNC(=O)c1cc2cccnc2c(N2CCCc3cc(-c4cnn(CS(C)(=O)=O)c4)c(C(F)F)cc32)n1 [Example 38, 8-[7-difluoro-methyl-6-(1-methanesulfonyl-methyl-1H-pyrazol-4-yl)-3,4-dihydro-2H-quinolin-1-yl]-[1,7] naphthyridine-6-carboxylic acid methylamide]"
10,62,"CNC(=O)c1cc2ccccc2c(N2CCC(NC)c3cc(-c4cnn(C)c4)ccc32)n1 (stereo not shown) [Example 40, 1-[4-methylamino-6-(1-methyl-1H-pyrazol-4-yl)-3,4-dihydro-2H-quinolin-1-yl]-isoquinoline-3-carboxylic acid methylamide]"
11,5.4,"CNC(=O)c1cc2cccnc2c(N2CCCc3cc(C4CCN(C(C)=O)CC4)c(C(F)F)cc32)n1 [Example 46, 8-[6-(1-acetylpiperidin-4-yl)-7-difluoromethyl-3,4-dihydro-2H-quinolin-1-yl]-[1,7]naphthyridine-6-carboxylic acid methylamide]"
12,22,"CNC(=O)c1cc2cc(OC)cnc2c(N2CCCc3cc(C4CCN(C(C)=O)CC4)c(C(F)F)cc32)n1 [Example 51, 8-[6-(1-acetylpiperidin-4-yl)-7-difluoro-methyl-3,4-dihydro-2H-quinolin-1-yl]-3-methoxy-[1,7] naphthyridine-6-carboxylic acid methylamide]"
